From patent US6800473B1, “Human cathepsin L2 protein, gene encoding said protein and use thereof” (Daiichi Fine Chemical Co., Ltd., priority 1998, dated 2004)
Like-named read-outs stand apart in the source and are kept apart here. Where a SMILES comes first, the peptide text is derived from it. [ ]: non-standard residue; d: D form. The star is where a group is joined. Sta = CC(C)C[C@H](N)[C@@H](O)CC(=O)O; Isovaleryl = CC(C)CC(=O)*

Molecular target: T1, recombinant cathepsin L2 (Homo sapiens, UniProt O60911)
T1 construct: extra Met before Leu114 (ATG of primer L2-1; own reading of the primer) (N); made in house; host or cells: E. coli BL21 (DE3)
T1 sequence (O60911 114-334): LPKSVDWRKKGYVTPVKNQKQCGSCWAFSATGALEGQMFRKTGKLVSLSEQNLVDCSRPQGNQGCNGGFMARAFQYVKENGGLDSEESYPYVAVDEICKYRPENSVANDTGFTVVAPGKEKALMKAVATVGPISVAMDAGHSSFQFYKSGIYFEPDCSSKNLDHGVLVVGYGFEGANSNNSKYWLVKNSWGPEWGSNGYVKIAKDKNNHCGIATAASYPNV
Assay type: biochemical
Details: FIG. 3(B)
Method: The enzyme activity of purified cathepsin L2 produced in E. coli was measured by using 20 μM Z-Phe-Arg-AMC or Z-Arg-Arg-AMC (Bachem) as the substrate and following the procedure described by Barrett and Kirschke (Barrett, A. J., et al., Methods Enzymol., 80: 535-561, 1981) with minor modifications. Assays were performed at 30° C. in 100 mM sodium acetate buffer (pH 4.5) containing 10 mM dithiothreitol (DTT) and 2 mM EDTA. Substrate hydrolysis was monitored in a Cytofluor 2350 fluorometer (Millipore) at excitation and emission wavelengths of 360 and 460 nm, respectively. For inhibition assays, the reaction mixture containing recombinant cathepsin L2 was preincubated with 20 μM E-64 (Sigma) at 30° C. for 15 min, and the remaining activity for recombinant cathepsin L2 was determined using the fluorogenic substrate Z-Phe-Arg-AMC as described herein previously. As a positive control of enzyme assays, recombinant cathepsin O produced in E. coli (Velasco, G., et al., J. Biol. Chem., 269: 27136-27142, 1994) was used.

[1] = inhibitors of metalloproteinases, serine-proteinases, aspartyl-proteinases, concentration not given

SMILES | proteolytic activity of cathepsin L2 against Z-Phe-Arg-AMC in the presence of inhibitor (preincubated with 20 μM E-64 at 30° C. for 15 min, 100 mM sodium acetate buffer pH 4.5, 10 mM DTT, 2 mM EDTA) | proteolytic activity of cathepsin L2 against Z-Phe-Arg-AMC in the presence of inhibitor [1]
CC(C)C[C@H](NC(=O)[C@H]1O[C@@H]1C(=O)O)C(=O)NCCCCN=C(N)N (relative stereo) [Clone E-64, trans-epoxysuccinyl-L-leucylamido-(4-guanidino)butane] | abolished | –
CC(C)CC(=O)N[C@H](C(=O)N[C@H](C(=O)N[C@@H](CC(C)C)[C@@H](O)CC(=O)N[C@@H](C)C(=O)N[C@@H](CC(C)C)[C@@H](O)CC(=O)O)C(C)C)C(C)C [pepstatin A] (Isovaleryl-VV[Sta]A[Sta]-OH) | – | not abolished
O=S(=O)(F)Cc1ccccc1 [phenylmethylsulfonyl fluoride] | – | not abolished
